Read-outs that look alike come from different tables or passages of the source.
Tests used:
[1] = system: clinical isolates of E. coli; assay: MIC against clinical isolates and potentiation by 4 µM PMBN; type: cell-based, Escherichia coli; details: for MIC: Escherichia coli
Description: MIC was determined by broth microdilution. Single-colony cultures were grown to exponential phase (OD600 of 0.5) aerobically at 37 °C. In case of strains from the Keio collection, 50 µg ml^−1 kanamycin was supplemented to the media to ascertain a homogeneous population. The bacterial suspensions were diluted 100-fold in CAMHB and 50 µl was added to a twofold serial dilution series of test compounds (50 µl per well) in polypropylene 96-well microtitre plates to reach a volume of 100 µl. The plates were sealed with breathable membranes and incubated overnight at 37 °C with constant shaking (600 r.p.m.).

[2] = biological target: T1, E. coli GyrA S97L/GyrB gyrase (Escherichia coli, UniProt P0AES4, S97L); assay: Gyrase supercoiling inhibition, GyrA S97L variant; type: biochemical
T1 construct: represents the first full-length E. coli gyrase structure in complex with an intact DNA molecule; 10xHis; 2xStrep (Twin-Strep); made in house
Description: Of this stock solution, 27 µl was aliquoted for each reaction in 1.5 ml Eppendorf tubes and supplemented with 0.6 µl of the appropriate compound dilution or corresponding solvent with a final DMSO concentration of 2%. The reactions were started with 3 µl of enzyme (1 U for WT gyrase retrieved from Inspiralis Limited or 25–30 nM gyrase variants purified in house) in dilution buffer (50 mM Tris–HCl (pH 7.5), 100 mM KCl, 2 mM DTT, 1 mM EDTA and 50% (wt/vol) glycerol) for a final volume of 30 µl. Reactions were run at 37 °C for 30 min and stopped with the addition of 30 µl STEB buffer (40% (wt/vol) sucrose, 100 mM Tris–HCl pH 8, 100 mM EDTA, 0.5 mg ml^−1 bromophenol blue) and 30 µl of a chloroform:isoamyl alcohol solution (24:1 vol/vol). After brief vortexing and centrifugation at 2,300g for 1 min, 20 µl of the aqueous phase was loaded onto 1% (wt/vol) agarose gels in TAE (Tris–acetate […]) gel. The gels were run at 85 V for 2 h followed by staining (15 min) in 1 µg ml^−1 ethidium bromide and destaining (5–10 min) in water. DNA was visualized (602/50, UV Trans, auto optimal exposure) with a ChemiDoc MP (Bio-Rad Laboratories Inc., equipped with ImageLab Touch Software v2.0.0.27) and the percentage of supercoiled DNA relative to the total amount material per lane was determined with ImageLab 6.1 software (Bio-Rad Laboratories Inc.) or ImageJ[47] software. […]

[3] = E. coli 1075, fold change in MIC after 4 µM PMBN
[4] = E. coli 552059.1, fold change in MIC after 4 µM PMBN
[5] = E. coli 552059.1, with 4 µM PMBN
[6] = E. coli 552060.1, fold change in MIC after 4 µM PMBN
[7] = E. coli 552060.1, with 4 µM PMBN
[8] = E. coli MVAST0072, fold change in MIC after 4 µM PMBN
[9] = E. coli MVAST0072, with 4 µM PMBN
[10] = E. coli NCTC13463, fold change in MIC after 4 µM PMBN
[11] = E. coli NCTC13463, with 4 µM PMBN
[12] = E. coli NCTC13846, fold change in MIC after 4 µM PMBN
[13] = E. coli NCTC13846, with 4 µM PMBN
[14] = E. coli mcr-1, fold change in MIC after addition of 4 µM PMBN
[15] = E. coli 1075 (MDR), read-out: MIC
[16] = E. coli 552059.1, read-out: MIC
[17] = E. coli 552060.1, read-out: MIC
[18] = E. coli MVAST0072 (MDR), read-out: MIC
[19] = NCTC13463, E. coli NCTC13463 (ESBL), read-out: MIC
[20] = NCTC13846, E. coli NCTC13846 (MDR, mcr-1)

`O=S(=O)(NCCNCc1ccc(-c2ccc(F)nc2)cc1)c1cccc2cnccc12` [Compound 60] gave an FC [1, 3] greater than 2, an MSC ([1]; E. coli 1075, with 4 µM PMBN) of 25 µM and an FC [1, 4] of 16. For the same compound, the MSC [1, 5] was 3.1 µM, the FC [1, 6] was 16 and the MSC [1, 7] was 3.1 µM. The FC [1, 8] was 16, the MSC [1, 9] was 3.1 µM and the FC [1, 10] was 8. The MSC [1, 11] was 1.6 µM, the FC [1, 12] was greater than 2 and the MSC [1, 13] was 25 µM. For the same compound, the FC [1, 14] was 4, the MSC ([1]; E. coli mcr-1, with 4 µM PMBN) was 12.5 µM and the MIC [1, 15] was greater than 50 µM. It also gave an MIC [1, 16] of 50 µM, an MIC [1, 17] of 50 µM and an MIC [1, 18] of 50 µM. The MIC ([1]; E. coli mcr-1 (MCR)) was 50 µM, the MIC [1, 19] was 12.5 µM and the MIC [1, 20] was greater than 50 µM.
In the case of `O=S(=O)(NC[C@@H]1CC[C@H](c2ccc(-c3ccc(F)cc3)cc2)N1)c1cccc2cnccc12` [Compound 101], the FC [1, 3] is reported as 8, the MSC ([1]; E. coli 1075, with 4 µM PMBN) is reported as 6.25 µM and the FC [1, 4] is reported as 16. The MSC [1, 5] was 0.8 µM, the FC [1, 6] was 16 and the MSC [1, 7] was 0.8 µM. The FC [1, 8] was 16, the MSC [1, 9] was 0.8 µM and the FC [1, 10] was 8. The MSC [1, 11] was 0.4 µM, the FC [1, 12] was 4 and the MSC [1, 13] was 3.1 µM. It also gave an FC [1, 14] of 4, an MSC ([1]; E. coli mcr-1, with 4 µM PMBN) of 3.1 µM and an MIC [1, 15] of 50 µM. The MIC [1, 16] was 12.5 µM, the MIC [1, 17] was 12.5 µM and the MIC [1, 18] was 12.5 µM. It also gave an MIC [1, 19] of 3.1 µM and an MIC [1, 20] of 12.5 µM.
With `O=S(=O)(NC[C@@H]1CC[C@H](c2ccc(-c3cccnc3)cc2)N1)c1cccc2cnccc12` [LEI-800] the “supercoiling inhibition of GyrA S97L variant” value [2] was “highly resistant”, the FC [1, 3] was greater than 4 and the MSC ([1]; E. coli 1075, with 4 µM PMBN) was 12.5 µM. The FC [1, 4] was 32, the MSC [1, 5] was 0.78 µM and the FC [1, 6] was 16. It also gave an MSC [1, 7] of 1.5 µM, an FC [1, 8] of 16 and an MSC [1, 9] of 1.5 µM. The FC [1, 10] was 8, the MSC [1, 11] was 0.4 µM and the FC [1, 12] was 4. It also gave an MSC [1, 13] of 12.5 µM, an FC [1, 14] of 4 and an MSC ([1]; E. coli mcr-1, with 4 µM PMBN) of 6.25 µM. The MIC ([1]; CIP-resistant isolate 965 (MDR)) was 12.5 µM, the MIC ([1]; CIP-resistant isolate 991, read-out: MIC) was 25 µM and the MIC ([1]; CIP-resistant isolate 1022 (ESBL), read-out: MIC) was 25 µM. It also gave an MIC ([1]; CIP-resistant isolate 1104 (MDR), read-out: MIC) of 25 µM, an MIC ([1]; CIP-resistant isolate 1146 (MDR)) of 6.25 µM and an MIC ([1]; CIP-resistant isolate 1175 (MDR), read-out: MIC) of 25 µM. The MIC ([1]; CIP-resistant isolate 1192 (MDR), read-out: MIC) was 50 µM, the MIC ([1]; CIP-resistant isolate 1201 (MDR)) was 12.5 µM and the MIC ([1]; CIP-resistant isolate 1233, read-out: MIC) was 12.5 µM. The MIC [1, 15] was greater than 50 µM, the MIC [1, 16] was 25 µM and the MIC [1, 17] was 25 µM. The MIC [1, 18] was 25 µM, the MIC [1, 19] was 3.1 µM and the MIC [1, 20] was 50 µM. It also gave an FC ([1]; isolate 965, fold-change in MIC) of 16, an MSC ([1]; isolate 965, with 4 μM PMBN) of 0.8 µM and an FC ([1]; isolate 991, fold-change in MIC) of 8. For the same compound, the MSC ([1]; isolate 991, with 4 μM PMBN) was 3.1 µM, the FC ([1]; isolate 1022, fold-change in MIC) was 16 and the MSC ([1]; isolate 1022, with 4 μM PMBN) was 1.6 µM. It also gave an FC ([1]; isolate 1104, fold-change in MIC) of 16, an MSC ([1]; isolate 1104, with 4 μM PMBN) of 1.6 µM and an FC ([1]; isolate 1146, fold-change in MIC) of 8. It also gave an MSC ([1]; isolate 1146, with 4 μM PMBN) of 0.8 µM, an FC ([1]; isolate 1175, fold-change in MIC) of 8 and an MSC ([1]; isolate 1175, with 4 μM PMBN) of 3.1 µM. For the same compound, the FC ([1]; isolate 1192, fold-change in MIC) was 16, the MSC ([1]; isolate 1192, with 4 μM PMBN) was 3.1 µM and the FC ([1]; isolate 1201, fold-change in MIC) was 8. It also gave an MSC ([1]; isolate 1201, with 4 μM PMBN) of 1.6 µM, an FC ([1]; isolate 1233, fold-change in MIC) of 8 and an MSC ([1]; isolate 1233, with 4 μM PMBN) of 1.6 µM.
With `O=S(=O)(NC[C@H]1CC[C@@H](c2ccc(-c3ccc(F)nc3)cc2)N1)c1cccc2cnccc12` [LEI-801] the “supercoiling inhibition of GyrA S97L variant” value [2] was “highly resistant”.

Source: article PMC11374673, “Discovery of isoquinoline sulfonamides as allosteric gyrase inhibitors with activity against fluoroquinolone-resistant bacteria” (Nature Chemistry, 2024)
